# Patent US10000479B2, “Compounds and their methods of use” (AGIOS PHARMACEUTICALS, INC., priority 2014, dated 2018)
# Biological target: T1, glutaminase (GAC) (Homo sapiens, UniProt O94925)
# T1 sequence (O94925 55-598 isoform O94925-3 limits assumed): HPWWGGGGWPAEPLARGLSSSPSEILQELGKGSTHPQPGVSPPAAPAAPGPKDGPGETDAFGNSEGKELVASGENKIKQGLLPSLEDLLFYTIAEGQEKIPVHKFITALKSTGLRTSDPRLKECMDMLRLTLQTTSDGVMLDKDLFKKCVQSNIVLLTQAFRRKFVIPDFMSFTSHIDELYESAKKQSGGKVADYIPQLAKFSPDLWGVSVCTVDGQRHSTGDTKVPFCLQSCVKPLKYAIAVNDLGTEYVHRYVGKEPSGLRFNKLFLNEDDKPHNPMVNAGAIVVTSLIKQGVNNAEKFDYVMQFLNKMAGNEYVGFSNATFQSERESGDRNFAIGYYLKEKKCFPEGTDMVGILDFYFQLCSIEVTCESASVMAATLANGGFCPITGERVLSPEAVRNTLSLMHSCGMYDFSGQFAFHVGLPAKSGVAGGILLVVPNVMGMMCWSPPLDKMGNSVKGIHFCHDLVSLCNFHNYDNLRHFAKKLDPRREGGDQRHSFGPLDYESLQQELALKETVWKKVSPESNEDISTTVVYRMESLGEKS
# Assay: glutaminase coupled endpoint assay (Example A)
# Assay type: biochemical
# Conditions: inhibition of glutaminase; assay of Example A or Example B
# Description: In this example, the enzymatic activity of glutaminase is measured through a coupled endpoint assay. Glutamine and phosphate are supplied to GAC at a concentration equal to Km and AC50, respectively, and GAC concentration is adjusted to give a linear reaction for 60 minutes. The glutamate produced is converted to 2-OG by a kinetic excess of glutamate dehydrogenase. This second step is configured for 2× Km for NAD, since excess NAD is inhibitory. However, a kinetic excess of the third coupling enzyme, diaphorase, recycles NAD from NADH to keep the NAD concentration constant during the timecourse of the assay. Diaphorase, also supplied in kinetic excess, oxidizes NADH produced by GDH back to NAD with the concomitant reduction of rezasurin to the highly fluorescent resorufin. Resorufin in measured after the assay is stopped with SDS by Ex544/Em590. A reduction in the signal indicates inhibition of some component of the coupled enzyme system. Prospective hits are counterscreened against GDH/diaphorase alone to remove hits to the coupling enzyme system in a second assay.
# 2. Buffers • 2× Buffer (300 mM NaCl, 100 mM HEPES pH 8.5, 0.1% BSA, 0.5 mM EDTA, 100 mM sodium phosphate pH 8.5) • 5× Substrate Mix (1× Buffer final concentration, with 13 mM glutamine, 100 μM resazurin, 50 μg/ml diaphorase) • 1.2× Enzyme Mix (1× Buffer final concentration, with 0.875 μg/ml GAC, 1.56 mM NAD, 6.25 units/ml GDH) • Stop Mix (6% SDS in ddH20) Reaction Procedure • 1. Add 1 μl compound in 100% DMSO • 2. Add 40 μl of Enzyme Mix and incubate for 60 minute at room temperature • 3. Add 10 μl of Substrate Mix to start reaction • 4. Stop reaction with 25 μl of 6% SDS and read Ex544 Em 590
# A compound described herein may be tested for its ability to inhibit glutaminase, e.g., by an assay as described in the Examples. For simplicity, the inhibition activity of these compounds is represented as an IC50 tested in an assay of Example A or Example B in Table 1. As shown, “A” refers to an inhibitor of glutaminase with an IC50<100 nM. “B” refers to inhibitor of glutaminase with an IC50 between 100 nM and 500 nM. “C” refers to inhibitor of glutaminase with an IC50 between 500 nM and 1000 nM. “D” refers to inhibitor of glutaminase with an IC50 between 1 μM and 2 μM. “E” refers to inhibitor of glutaminase with an IC50 between 2 μM and 10 μM. “N/A” refers to compounds wherein the IC50 is unavailable.
row,SMILES,IC50 [nM]
1,"O=C(Cc1ccccn1)Nc1ccc([C@@H]2CCC[C@@H](c3ccc(NC(=O)Cc4ccccn4)nn3)C2)nn1 (racemic) [Compound 14, Trans-(rac)-N,N′-(6,6′-(cyclohexane-1,3-diyl)bis(pyridazine-6,3-diyl))bis(2-(pyridin-2-yl)acetamide)]",< 100
2,"CC(=O)Nc1ccc([C@H]2CCC[C@H](c3ccc(NC(C)=O)nn3)C2)nn1 (racemic) [Compound 41, Trans-(rac)-N,N′-(6,6′-(cyclohexane-1,3-diyl)bis(pyridazine-6,3-diyl))diacetamide]",2000 to 10000
3,"O=C(Cc1ccccc1)Nc1ccc([C@@H]2CCC[C@H](c3ccc(NC(=O)Cc4ccccc4)nn3)C2)nn1 [Compound 10, N,N′-(6,6′-((1R,3S)-cyclohexane-1,3-diyl)bis(pyridazine-6,3-diyl))bis(2-phenylacetamide)]",< 100
4,"O=C(Cc1ccccn1)Nc1ccc([C@@H]2CCC[C@H](c3ccc(NC(=O)Cc4ccccn4)nn3)C2)nn1 [Compound 20, N,N′-(6,6′-((1R,3S)-Cyclohexane-1,3-diyl)bis(pyridazine-6,3-diyl))bis(2-(pyridin-2-yl)acetamide)]",< 100
5,"CCCC(=O)Nc1ccc([C@@H]2CCC[C@H](c3ccc(NC(=O)CCC)nn3)C2)nn1 [Compound 37, N,N′-(6,6′-((1R,3S)-Cyclohexane-1,3-diyl)bis(pyridazine-6,3-diyl))dibutyramide]",< 100

# More lines, now with the values ahead:
row,IC50 [nM],SMILES
1,2000 to 10000,"O=C(Cc1ccc(OC(F)(F)F)cc1)Nc1ccc([C@H]2CCC[C@H](c3ccc(NC(=O)Cc4ccc(OC(F)(F)F)cc4)nn3)C2)nn1 (racemic) [Compound 75, Trans-(rac)-N,N′-(6,6′-(cyclohexane-1,3-diyl)bis(pyridazine-6,3-diyl))bis(2-(4-(trifluoromethoxy)phenyl)acetamide)]"
2,100 to 500,"CC(C)C(=O)Nc1ccc([C@@H]2CCC[C@H](c3ccc(NC(=O)C(C)C)nn3)C2)nn1 [Compound 98, N,N′-(6,6′-((1R,3S)-Cyclohexane-1,3-diyl)bis(pyridazine-6,3-diyl))bis(2-methylpropanamide)]"
3,< 100,"CC(=O)Nc1ccc([C@@H]2CCC[C@H](c3ccc(NC(C)=O)nn3)C2)nn1 [Compound 99, N,N′-(6,6′-((1R,3S)-Cyclohexane-1,3-diyl)bis(pyridazine-6,3-diyl))diacetamide]"
4,< 100,"CCC(=O)Nc1ccc([C@@H]2CCC[C@H](c3ccc(NC(=O)CC)nn3)C2)nn1 [Compound 152, N,N′-(6,6′-((1R,3S)-Cyclohexane-1,3-diyl)bis(pyridazine-6,3-diyl))dipropionamide]"
5,< 100,"O=C(Cc1ccccn1)Nc1ccc(C2CCC(c3ccc(NC(=O)Cc4ccccn4)nn3)C2)nn1 (stereo not shown) [Compound 175, N, N′-(6,6′-(Cyclopentane-1,3-diyl)bis(pyridazine-6,3-diyl))bis(2-(pyridin-2-yl)acetamide)]"
6,< 100,"O=C(Nc1ccc([C@@H]2CCC[C@H](c3ccc(NC(=O)OCc4ccccc4)nn3)C2)nn1)OCc1ccccc1 [Compound 176, Dibenzyl (6,6′-((1R,3S)-cyclohexane-1,3-diyl)bis(pyridazine-6,3-diyl))dicarbamate]"
7,100 to 500,O=C(Cc1cccc(OC(F)(F)F)c1)Nc1ccc([C@@H]2CCC[C@H](c3ccc(NC(=O)Cc4cccc(OC(F)(F)F)c4)nn3)C2)nn1 [Compound 180]
8,< 100,"O=C(Cc1ccccc1)Nc1ccc([C@H]2CCC[C@@H](c3nnc(NC(=O)Cc4ccccc4)s3)C2)nn1 [Compound 291, 2-Phenyl-N-(6-((1S,3R)-3-(5-(2-phenylacetamido)-1,3,4-thiadiazol-2-yl)cyclohexyl)pyridazin-3-yl)acetamide]"
